Legend:
Test in all cases: Growth on agar plates with different concentrations of AgNO3 or HAuCl4 (resistance assay)
Format in all cases: cell-based
Design in all cases: key: x = growth; (x) = weak growth
Bacillus sphaericus = system: Bacillus sphaericus
From the text: (§1) The growth of several microorganisms (e.g. Escherichia coli, Xanthomonas campestris, Cupriavidus metallidurans and Bacillus sphaericus) was monitored in the presence of the lids with coated pins. Escherichia coli and Xanthomonas campestris served as negative controls with regard to metal binding; Cupriavidus metallidurans as positive control. Additionally, Bacillus sphaericus was used as a positive control for silver binding. For Bacillus sphaericus the binding to gold particles and gold coated surfaces was observed earlier by the inventors. Cupriavidus metallidurans is a gram-negative, rod-shaped bacterium which has gold binding capacity as described in the literature (Reith et al., 2006). The species name metallidurans indicates its resistance to heavy metals and its ability to survive in the presence of gold and silver was investigated previously (Reith F, Rogers S L, McPhail D C and Webb D. (2006) “Biomineralization of gold: biofilms on bacterioform gold.” Science 313(5784): 233-236; Reith F, Etschmann B, Grosse C, Moors H, Benotmane M A, Monsieurs P, Grass G, Doonan C, Vogt S, Lai B, Martinez-Criado G, George G N, Nies D H, Mergeay M, Pring A, Southam G and Brugger J. (2009) “Mechanisms of gold biomineralization in the bacterium Cupriavidus metallidurans.” Proc Natl Acad Sci 106(42):17757-17762; Ledrich ML1, Stemmler S, Laval-Gilly P, Foucaud L, and Falla J (2005) “Precipitation of silver-thiosulfate complex and immobilization of silver by Cupriavidus metallidurans CH34.” Biometals 18(6): 643-650).
(§2) To investigate the tolerated concentration of silver and gold, the microorganisms were propagated in liquid medium and streaked on agar plates with different concentrations of AgNO3 or HAuCl4, respectively.

[1] = system: Cupriavidus metallidurans
From the text: as §1, §2

Escherichia coli = system: Escherichia coli
From the text: as §1, §2

Xanthomonas campestris = system: Xanthomonas campestris
From the text: as §1, §2

SMILES: [Au+3].[Cl-].[Cl-].[Cl-].[Cl-].[H+] [HAuCl4]
- Microbial growth dependence on HAuCl4 concentration (Bacillus sphaericus; 2 μM HAuCl4, agar plate): x
- Microbial growth dependence on HAuCl4 concentration (Bacillus sphaericus; 20 μM HAuCl4, agar plate): x
- Microbial growth dependence on HAuCl4 concentration (Bacillus sphaericus; 100 μM HAuCl4, agar plate): x
- Microbial growth dependence on HAuCl4 concentration (Bacillus sphaericus; 200 μM HAuCl4, agar plate): x
- Microbial growth dependence on HAuCl4 concentration ([1]; 2 μM HAuCl4, agar plate): x
- Microbial growth dependence on HAuCl4 concentration ([1]; 20 μM HAuCl4, agar plate): x
- Microbial growth dependence on HAuCl4 concentration ([1]; 100 μM HAuCl4, agar plate): x
- Microbial growth dependence on HAuCl4 concentration ([1]; 200 μM HAuCl4, agar plate): x
- Microbial growth dependence on HAuCl4 concentration ([1]; 300 μM HAuCl4, agar plate): x
- Microbial growth dependence on HAuCl4 concentration ([1]; 400 μM HAuCl4, agar plate): x
- Microbial growth dependence on HAuCl4 concentration ([1]; 500 μM HAuCl4, agar plate): x
- Microbial growth dependence on HAuCl4 concentration (Escherichia coli; 2 μM HAuCl4, agar plate): x
- Microbial growth dependence on HAuCl4 concentration (Escherichia coli; 20 μM HAuCl4, agar plate): x
- Microbial growth dependence on HAuCl4 concentration (Escherichia coli; 100 μM HAuCl4, agar plate): x
- Microbial growth dependence on HAuCl4 concentration (Escherichia coli; 200 μM HAuCl4, agar plate): x
- Microbial growth dependence on HAuCl4 concentration (Escherichia coli; 300 μM HAuCl4, agar plate): x
- Microbial growth dependence on HAuCl4 concentration (Xanthomonas campestris; 2 μM HAuCl4, agar plate): x
- Microbial growth dependence on HAuCl4 concentration (Xanthomonas campestris; 20 μM HAuCl4, agar plate): x
- Microbial growth dependence on HAuCl4 concentration (Xanthomonas campestris; 100 μM HAuCl4, agar plate): x
- Microbial growth dependence on HAuCl4 concentration (Xanthomonas campestris; 200 μM HAuCl4, agar plate): x
- Microbial growth dependence on HAuCl4 concentration (Xanthomonas campestris; 300 μM HAuCl4, agar plate): x

SMILES: O=[N+]([O-])[O-].[Ag+] [AgNO3]
- Microbial growth dependence on AgNO3 concentration (Bacillus sphaericus; 2 μM AgNO3, agar plate): x
- Microbial growth dependence on AgNO3 concentration (Bacillus sphaericus; 10 μM AgNO3, agar plate): x
- Microbial growth dependence on AgNO3 concentration (Bacillus sphaericus; 20 μM AgNO3, agar plate): x
- Microbial growth dependence on AgNO3 concentration (Bacillus sphaericus; 50 μM AgNO3, agar plate): x
- Microbial growth dependence on AgNO3 concentration (Bacillus sphaericus; 100 μM AgNO3, agar plate): x
- Microbial growth dependence on AgNO3 concentration (Bacillus sphaericus; 150 μM AgNO3, agar plate): x
- Microbial growth dependence on AgNO3 concentration ([1]; 2 μM AgNO3, agar plate): x
- Microbial growth dependence on AgNO3 concentration ([1]; 10 μM AgNO3, agar plate): x
- Microbial growth dependence on AgNO3 concentration ([1]; 20 μM AgNO3, agar plate): x
- Microbial growth dependence on AgNO3 concentration ([1]; 50 μM AgNO3, agar plate): x
- Microbial growth dependence on AgNO3 concentration ([1]; 100 μM AgNO3, agar plate): x
- Microbial growth dependence on AgNO3 concentration ([1]; 150 μM AgNO3, agar plate): x
- Microbial growth dependence on AgNO3 concentration ([1]; 200 μM AgNO3, agar plate): (x)
- Microbial growth dependence on AgNO3 concentration (Escherichia coli; 2 μM AgNO3, agar plate): x
- Microbial growth dependence on AgNO3 concentration (Escherichia coli; 10 μM AgNO3, agar plate): x
- Microbial growth dependence on AgNO3 concentration (Escherichia coli; 20 μM AgNO3, agar plate): x
- Microbial growth dependence on AgNO3 concentration (Escherichia coli; 50 μM AgNO3, agar plate): x
- Microbial growth dependence on AgNO3 concentration (Escherichia coli; 100 μM AgNO3, agar plate): x
- Microbial growth dependence on AgNO3 concentration (Xanthomonas campestris; 2 μM AgNO3, agar plate): x
- Microbial growth dependence on AgNO3 concentration (Xanthomonas campestris; 10 μM AgNO3, agar plate): x
- Microbial growth dependence on AgNO3 concentration (Xanthomonas campestris; 20 μM AgNO3, agar plate): x
- Microbial growth dependence on AgNO3 concentration (Xanthomonas campestris; 50 μM AgNO3, agar plate): x
- Microbial growth dependence on AgNO3 concentration (Xanthomonas campestris; 100 μM AgNO3, agar plate): x

Source: US11718892B2, “Biological ore processing for the isolation of heavy metals” (CyPlus GmbH, priority 2015, dated 2023)
